What was measured:
[1] = Compound pharmacokinetics study in mice (plasma and brain); assay type: in vivo; settings: mouse; for AUC(0-t): iv (2 mpk) or PO (10 mpk), followed for 24 hours
Method: Compound Pharmacokinetics Study in Mice
The compound was administered to six male swiss mice (five weeks old) by the PO route and six male mice by the iv route (caudal vein). […] For the PO route (10 mg/kg), the compound was dissolved in a solution of 0.5% Methyl cellulose (ref sigma M0262) and 0.3% Polysorbate 80 (Tween 80—ref sigma P8074). During the iv administration and blood sampling animals were anesthetized with Isofluorane® (from Belamont) using an anaesthetic system (Minerve). At the precise time-point, blood samplings were done at the retro-orbital sinus, with a capillary tube. The blood volume collected per each time-point was 0.2-0.3 ml. Blood samples were collected into tubes containing both lithium and heparin and then centrifuged at 2500 rpm at 4° C. Plasma was removed and transferred into polypropylene tubes. Individual plasma aliquots were frozen at −20° C. (±5° C.) and stored until analysis.
After blood sampling, the animals were perfused with 7 ml cold saline solution directly into the heart to extract the maximum of blood from the brain vasculature. Animals were then beheaded and the brain tissue collected and frozen at −20° C. (±5° C.) and stored until analysis. Prior to the sample analysis, the suitability of the analytical method to detect the compounds to be evaluated was performed as described below. The molecular and daughter ions were selected for each molecule by direct infusion into the MS-MS system. For those plasma samples which are mixed prior to analysis, precaution was taken to avoid mixing common moieties both with regards to the parent compounds as well as potential metabolites. According to the expected sensitivity, 8 point calibration standards (1, 5, 10, 50, 100, 500, 1000 and 5000 ng/mL) were run using standard conditions which consist to LC/MS/MS system with C18 column after precipitation of the plasma proteins with acetonitrile before the start of the analytical test. Calibration standards were performed in each matrix (plasma and brain). Prior to analysis, 100 μL of each plasma sample was mixed with 300 μL acetonitrile. Following protein precipitation, samples were vortex mixed for 30 seconds, centrifuged 5 min at 15000 tr/min and the supernatant was removed. Analyses were performed using LC/MS/MS determination according to previous analytical test results. Brains were homogenized with a potter using water (1/1, w/w). 100 μl of the homogenate was mixed with 100 μl of acetonitrile. The mixture was mixed (Vortex) for 30 seconds, then centrifuged during 5 min at 15000 tr/min. Brain homogenate supernatants were directly measured by LC/MS/MS after centrifugation. LC-MS/MS system was used with a C18 Kromasil column and API4000® from Applied Biosystem or Quattro® from Waters as mass spectrometers.

[2] = system: APPPS1 mice; experiment: Alzheimer's disease model (APPPS1 mice): Morris-Water-Maze test; assay type: in vivo, mouse; settings: 60 days, +/- standard deviation
[3] = system: db/db mice; experiment: Diabetes model (db/db mice): non-fasting glycemia and HbA1c; assay type: in vivo, mouse
Method: Diabetes Model (db/db Mice)
The male db/db mice (8 to 9 week-old) were purchased from CERJ JANVIER (Le Genest Saint Isle, France). Animal care and handling was performed according to the Declaration of Helsinki and was approved by the local ethics committees. The animals were kept under a 12 hour light/dark standard light cycle and had free access to water and food. Animals were fed standard rodent chow diet (A03 SAFE, Augy, France). Mice were randomly assigned into different treatment groups, weighed and dosed by oral gavage (10 ml/kg body weight) once daily in the morning, either with the vehicle or with the compound. The vehicle used was 0.1% Tween 80 (Polyoxyethylenesorbitan monooleate) and 1% carboxymethylcellulose in 98.9% distilled water. The entire treatment protocol took 37 days. Non-fasting glycemia was measured at 8 A.M. with the Smart Check blood glucose monitoring system, in mice that have had unrestricted access to food and water throughout the night. The blood concentration of the glycosylated hemoglobin A1c was determined using the Randox kit for Daytona automate (Randox, cat# HA 3830) according to the manufacturer's recommendations. The HbA1c result was calculated as a percentage of the total hemoglobin concentration.

[4] = treated group, start of study period

Question: For `COC(c1ccc(OC(F)(F)F)cc1)C1CC1c1cc(C)c(OC(C)(C)C(=O)O)c(C)c1` (single isomer, unassigned) [Cpd 14-1-2, 2-(4-(2-(methoxy(4-(trifluoromethoxy)phenyl)methyl)cyclopropyl)-2,6-dimethylphenoxy)-2-methylpropanoic acid], which bioavailability ([1]; male, Swiss, plasma, PO (10 mpk) versus iv (2 mpk), read-out: F % (bioavailability)) is on record?
Answer: Its bioavailability is 93%.

Question: What about the AUC(0-t) ([1]; male, Swiss, brain) of the same molecule?
Answer: The AUC(0-t) was 26700 ng·h/mL.

Question: And the Kp ([1]; male, Swiss, from AUC comparison brain to plasma, read-out: part of the administered compound that penetrates into the brain)?
Answer: The Kp was 0.37.

Question: And the AUC(0-t) ([1]; male, Swiss, plasma)?
Answer: The AUC(0-t) was 71800 ng·h/mL.

Question: What about the brain/plasma ratio ([1]; AUC comparison (brain exposure to plasma exposure ratio)) of the same molecule?
Answer: Its brain/plasma ratio is 0.37.

Question: What about the “F % (bioavailability)” value ([1]; PO (10 mpk) versus iv (2 mpk)) of the same molecule?
Answer: Its value is 92.9%.

Question: And the “Morris-Water maze distance, mean reduction from untreated APPPS1 mice” value ([2]; 1 mpk per day)?
Answer: Its value is 22.6 % +/− 21% (*).

Question: And the “Morris-Water maze latency, mean reduction from untreated APPPS1 mice” value ([2]; 1 mpk per day)?
Answer: Its value is 45.6 % +/− 16 % (**).

Question: And the “Morris-Water maze distance, mean reduction from untreated APPPS1 mice” value ([2]; 10 mpk per day)?
Answer: The value was 31.1 % +/− 18 % (**).

Question: What about the “Morris-Water maze latency, mean reduction from untreated APPPS1 mice” value ([2]; 10 mpk per day) of the same molecule?
Answer: The value was 39.9 % +/− 20 % (**).

Question: What about the Non-fasting glycemia ([3]; 3 mg per kg per day by gavage, day 30) of the same molecule?
Answer: Its Non-fasting glycemia is 146 mg/dL.

Question: And the “glycated hemoglobin (HbA1c)” value ([3]; 3 mg per kg per day by gavage, day 37)?
Answer: Its value is 4.12%.

Question: What about the “decrease of non-fasting glycemia during the study period” value ([3]; 3 mg per kg per day by gavage, start to day 30) of the same molecule?
Answer: The value was 48%.

Question: What about the “change in HbA1c during the study period” value ([3]; 3 mg per kg per day by gavage, start to day 37) of the same molecule?
Answer: Its value is “no significant change”.

Question: And the “non-fasting glycemia lower as compared to untreated controls” value ([3]; 3 mg per kg per day, day 30, t-test p-value <0.0001)?
Answer: The value was 60%.

Question: And the “HbA1c lower as compared to the diabetic controls” value ([3]; 3 mg per kg per day, day 37, t-test p-value <0.01)?
Answer: Its value is 28%.

Question: And the Non-fasting glycemia [3, 4]?
Answer: The Non-fasting glycemia was 258 mg/dL.

Question: And the “glycated hemoglobin (HbA1c)” value [3, 4]?
Answer: The value was 4.16%.
